Patent US5478812A, “Chromanol glycoside and method for production thereof” (CCI Corporation, priority 1993, dated 1995)
Where two headings read alike, the source gives them in different places.

Key:
solubility in water = format: physicochemical; conditions: 25 °C, constant stirring at 200 rpm, HPLC; for solubility: water, read-out: solubility in water (amounts of sample dissolved in 1 ml of water)
Source text: The chromanol glycoside obtained in Examples 1 to 5 [6-hydroxy-2,5,7,8-tetramethyl chroman-2-methyl-α-D-glucopyranoside represented by the aforementioned formula (4)], the chromanol glycoside obtained in Examples 6 to 8 [6-hydroxy-2,5,7,8-tetramethyl chroman-2-ethyl-α-D-glucopyranoside represented by the aforementioned formula (7)], the chromanol glycoside obtained in Examples 4 and 5 [6-hydroxy-2,5,7,8-tetramethyl chroman-2-methyl-α-D-maltopyranoside represented by the aforementioned formula (5)], and the chromanol glycoside obtained in Example 8 [6-hydroxy-2,5,7,8-tetramethyl chroman-2-ethyl-α-D-maltopyranoside represented by the aforementioned formula (8)] were tested for solubility in water. Specifically, this test was performed by adding an excess amount of a given chromanol glycoside to 1 ml of water. The reaction mixture was incubated at 25° C. for […] with constant stirring at 200 rpm. After 100 hours, the reaction mixture was transferred into a membrane filter (produced by Nihon Millipore Ltd. and marketed under trademark designation of "HPLC Sample Prep C02-LG") and insoluble substances were removed by centrifugation (4,100×g, 10 minutes, 20° C.). The filtered solution was subjected to HPLC to determine the amount of chromanol glycoside remaining in the aqueous solution. For the purpose of comparison, the 2-substituted alcohols represented by the aforementioned formulas (3) and […] and Trolox were similarly tested.
The numerals given in the tables represent the amounts of sample dissolved in 1 ml of water.

pH stability = format: physicochemical; conditions: 5.5 mM, buffer/ethanol 5:1 v/v; for remaining at 100 h, 5500 µM: read-out: Residual amounts (%) after 100 hours; for Residual amounts (%) after 100 hours: 5500 µM
Source text: The chromanol glycoside obtained in Examples 1 to 5 [6-hydroxy-2,5,7,8-tetramethyl chroman-2-methyl-α-D-glucopyranoside represented by the aforementioned formula (4)], the chromanol glycoside obtained in Examples 6 to 8 [6-hydroxy-2,5,7,8-tetramethyl chroman-2-ethyl-α-D-glucopyranoside represented by the aforementioned formula (7)], the chromanol glycoside obtained in Examples 4 and 5 [6-hydroxy-2,5,7,8-tetramethyl chroman-2-methyl-α-D-maltopyranoside represented by the aforementioned formula (5)], and the chromanol glycoside obtained in Example 8 [6 -hydroxy-2,5,7,8-tetramethyl chroman-2-ethyl-α-D-maltopyranoside represented by the aforementioned formula (8)] were tested for pH stability. This test was specifically performed by incubating a 5.5 mM chromanol glycoside solution (buffer/ethanol, 5:1 v/v) having a varying pH value. At regular intervals, aliquots of the reaction mixture were withdrawn and the residual amounts of chromanol glycoside were measured by HPC. For the purpose of comparison, the 2-substituted alcohols represented by the aforementioned formulas (3) and (6) and Trolox were similarly tested.
It is clearly noted from the test results that the conversion of 2-substituted alcohols into respective glycosides enhances pH stability. The buffer used for the test were 100 mM acetate buffer of pH 5.5, 100 mM phosphate buffer of pH 7.0, and 100 mM tris-HCl buffer of pH 8,5.

[1] = antioxidant activity using liposomal membranes (phosphatidylcholine hydroperoxides); format: biochemical; conditions: 0.1 μmol antioxidant in 1.1 ml 10 mM tris-HCl buffer pH 7.4; water-soluble radical generator; in words
Source text: Antioxidant activity on the chromanol glycoside obtained in Examples 1 to 5 [6-hydroxy-2,5,7,8-tetramethyl chroman-2-methyl-α-D-glucopyranoside represented by the aforementioned formula (4)[, the chromanol glycoside obtained in Examples 6 to 8 [6-hydroxy-2,5,7,8-tetramethyl chroman-2-ethyl-α-D-glucopyranoside represented by the aforementioned formula (7)], the chromanol glycoside obtained in Examples 4 and 5 [6-hydroxy-2,5,7,8-tetramethyl chroman-2-methyl-α-D-maltopyranoside represented by the aforementioned formula (5)], and the chromanol glycoside obtained in Example 8 [6-hydroxy-2,5,7,8-tetramethyl chroman-2-ethyl-α-D-malto-pyranoside represented by the aforementioned formula (8)] was investigated by using a liposonal membranes. Specifically, this test was performed by adjusting a reaction solution consisting of 5.5 μmol of a multilameller liposomes of egg yolk phosphatidylcholine, 16.5 μmol of a water-soluble radical generator [2,2'-azo-bis(2-amidinopropane) dihydrochloride], and 0.1 μmol of antioxidant in 1.1 ml of a 10 mM tris-HCl buffer (pH 7.4). At regular intervals, aliquots of the reaction mixture were withdrawn and the amount of phosphatidylcholine hydroperoxides were measured by HPLC.

[2] = hydroperoxidation of methyl linoleate via radical chain reaction in hexane/isopropyl alcohol; format: biochemical; conditions: 0.1 μmol antioxidant in 1.1 ml hexane/isopropyl alcohol 1:1; 37 °C; oil-soluble radical generator; in words
Source text: Antioxidant activity on the chromanol glycoside obtained in Examples 1 to 5 [6-hydroxy-2,5,7,8-tetramethyl chroman-2-methyl-α-D-glucopyranoside represented by the aforementioned formula (4)], the chromanol glycoside obtained in Examples 6 to 8 [6-hydroxy-2,5,7,8-tetramethyl chroman-2-ethyl-α-D-glucopyranoside represented by the aforementioned formula (7)], the chromanol glycoside obtained in Examples 4 and 5 [6-hydroxy-2,5,7,8-tetramethyl chroman-2-methyl-α-D-maltopyranoside represented by the aforementioned formula (5)], and the chromanol glycoside obtained in Example 8 [6-hydroxy-2,5,7,8-tetramethyl chroman-2-ethyl-α-D-maltopyranoside represented by the aforementioned formula (8)] was investigated by measuring the hydroperoxidation of methyl linoleate via radical chain reaction. Specifically, this test was performed by incubating 132 μmol of methyl linoleate, 16.5 μmol of an oil-soluble radical generator [2,2'-azo-bis(2,4-dimethyl valeronitrile)], 0.1 μmol of antioxidant in 1.1 ml of a hexane/isopropyl alcohol (1:1 v/v), and the mixture was incubated at 37° C. At regular intervals, aliquots of the reaction mixture were withdrawn and the amount of methyl linoleate hydroperoxides were measured by HPLC. […] EXAMPLE 10

[3] = acetate buffer/ethanol 5:1, pH 5.5, pH 5.5 (100 mM acetate buffer)
[4] = phosphate buffer/ethanol 5:1, pH 7, pH 7.0 (100 mM phosphate buffer)
[5] = tris-hcl buffer/ethanol 5:1, pH 8.5, pH 8.5 (100 mM tris-HCl buffer)

Row | SMILES | solubility (solubility in water) | remaining at 100 h, 5500 µM (pH stability; [3]) | remaining at 100 h, 5500 µM (pH stability; [4]) | remaining at 100 h, 5500 µM (pH stability; [5]) | antioxidant activity (phosphatidylcholine hydroperoxides) [1] | antioxidant activity (methyl linoleate hydroperoxides) [2] | further results
1 | Cc1c(C)c2c(c(C)c1O)CCC(C)(CO)O2 (racemic) [formula (3), reference compound] | 1 mg/mL | 73% | 29% | 7% |  |  | 
2 | Cc1c(C)c2c(c(C)c1O)CCC(C)(CO[C@H]1O[C@H](CO)[C@@H](O)[C@H](O)[C@H]1O)O2 (stereo partly drawn) [formula (4), 6-hydroxy-2,5,7,8-tetramethyl chroman-2-methyl-α-D-glucopyranoside] | ~1000 mg/mL | 91% | 41% | 20% | more effective antioxidants than ascorbic acid | excel 3,5-tert-butyl-4-hydroxytoluene and equal α-tocopherol | solubility in water (amounts of sample dissolved in 1 ml of water) (solubility in water; listed as formula (4) of Example 3): About 1000 mg/ml; solubility in water (amounts of sample dissolved in 1 ml of water) (solubility in water; listed as formula (4) of Example 4): About 1000 mg/ml; solubility in water (amounts of sample dissolved in 1 ml of water) (solubility in water; listed as formula (4) of Example 5): About 1000 mg/ml; Residual amounts (%) after 100 hours (pH stability; pH 5.5 (100 mM acetate buffer), listed as formula (4) of Example 2, 6000 min): 85%; Residual amounts (%) after 100 hours (pH stability; pH 5.5 (100 mM acetate buffer), listed as formula (4) of Example 3, 6000 min): 89%; Residual amounts (%) after 100 hours (pH stability; pH 5.5 (100 mM acetate buffer), listed as formula (4) of Example 4, 6000 min): 84%; Residual amounts (%) after 100 hours (pH stability; pH 5.5 (100 mM acetate buffer), listed as formula (4) of Example 5, 6000 min): 88%; Residual amounts (%) after 100 hours (pH stability; pH 7.0 (100 mM phosphate buffer), listed as formula (4) of Example 2, 6000 min): 42%; Residual amounts (%) after 100 hours (pH stability; pH 7.0 (100 mM phosphate buffer), listed as formula (4) of Example 3, 6000 min): 43%; Residual amounts (%) after 100 hours (pH stability; pH 7.0 (100 mM phosphate buffer), listed as formula (4) of Example 4, 6000 min): 44%; Residual amounts (%) after 100 hours (pH stability; pH 7.0 (100 mM phosphate buffer), listed as formula (4) of Example 5, 6000 min): 43%; Residual amounts (%) after 100 hours (pH stability; pH 8.5 (100 mM tris-HCl buffer), listed as formula (4) of Example 2, 6000 min): 19%; Residual amounts (%) after 100 hours (pH stability; pH 8.5 (100 mM tris-HCl buffer), listed as formula (4) of Example 4, 6000 min): 19%; Residual amounts (%) after 100 hours (pH stability; pH 8.5 (100 mM tris-HCl buffer), listed as formula (4) of Example 5, 6000 min): 21%
3 | Cc1c(C)c2c(c(C)c1O)CCC(C)(CCO[C@H]1O[C@H](CO)[C@@H](O[C@H]3O[C@H](CO)[C@@H](O)[C@H](O)[C@H]3O)[C@H](O)[C@H]1O)O2 (stereo partly drawn) [formula (8), 6-hydroxy-2,5,7,8-tetramethyl chroman-2-ethyl-α-D-maltopyranoside] | 141 mg/mL | 57% | 16% | 2% | more effective antioxidants than ascorbic acid | excel 3,5-tert-butyl-4-hydroxytoluene and equal α-tocopherol | 
4 | Cc1c(C)c2c(c(C)c1O)CCC(C)(CO[C@H]1O[C@H](CO)[C@@H](O[C@H]3O[C@H](CO)[C@@H](O)[C@H](O)[C@H]3O)[C@H](O)[C@H]1O)O2 (stereo partly drawn) [formula (5), 6-hydroxy-2,5,7,8-tetramethyl chroman-2-methyl-α-D-maltopyranoside] |  | 84% | 40% | 19% | more effective antioxidants than ascorbic acid | excel 3,5-tert-butyl-4-hydroxytoluene and equal α-tocopherol | Residual amounts (%) after 100 hours (pH stability; pH 5.5 (100 mM acetate buffer), listed as formula (5) of Example 5, 6000 min): 86%; Residual amounts (%) after 100 hours (pH stability; pH 7.0 (100 mM phosphate buffer), listed as formula (5) of Example 5, 6000 min): 44%; Residual amounts (%) after 100 hours (pH stability; pH 8.5 (100 mM tris-HCl buffer), listed as formula (5) of Example 5, 6000 min): 20%
5 | Cc1c(C)c2c(c(C)c1O)CCC(C)(CCO)O2 (racemic) [formula (6), reference compound] | 0.1 mg/mL | 63% | 19% | 3% |  |  | 
